The record followed here is patent publication US20250074919A1, “Heteroaryl compounds as inhibitors of irak4, compositions and applications thereof” (Accro Bioscience (HK) Limited, priority 2021, published 2025).

Where a name gives a salt, the structure may show the parent alone.

IRAK4, sequence (Q9NWZ3 whole entry): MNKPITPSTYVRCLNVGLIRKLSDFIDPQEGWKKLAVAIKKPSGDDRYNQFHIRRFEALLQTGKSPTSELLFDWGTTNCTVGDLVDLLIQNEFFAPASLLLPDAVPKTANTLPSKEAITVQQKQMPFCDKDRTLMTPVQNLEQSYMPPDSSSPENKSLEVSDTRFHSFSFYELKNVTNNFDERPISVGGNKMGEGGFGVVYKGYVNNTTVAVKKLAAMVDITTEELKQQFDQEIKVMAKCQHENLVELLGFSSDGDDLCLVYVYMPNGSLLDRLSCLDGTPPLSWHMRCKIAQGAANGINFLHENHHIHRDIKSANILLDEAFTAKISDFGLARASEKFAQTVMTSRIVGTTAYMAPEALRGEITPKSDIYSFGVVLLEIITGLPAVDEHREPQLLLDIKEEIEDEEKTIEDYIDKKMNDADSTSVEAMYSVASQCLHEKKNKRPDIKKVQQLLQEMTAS

One experiment has as its target IRAK4 (Homo sapiens (Human), UniProt Q9NWZ3). Description: Screening the compounds against IRAK4 with ATP (Caliper, FAM-labeled peptide). The class given is biochemical. To be noted: IRAK4 kinase inhibition relative to CA4948. The method, then:
Prepare Ix kinase base buffer and stop buffer for testing kinases: (1) base buffer: 50 mM HEPES (pH 7.5), 0.0015% Brij-35; (2) stop buffer: 100 mM HEPES (pH 7.5), 0.015% Brij-35, 0.2% Coating Reagent #3, 50 mM EDTA. Then prepare compounds for testing: Dilute the compound to 50× of the final desired highest inhibitor concentration in reaction by 100% DMSO. Transfer 100 μL of this compound dilution to a well in a 96-well plate (source plate).
Serially dilute the compounds by 3-fold for a total of 10 points. Transfer 10 μL of the compound from the source plate to a new 96-well plate (intermediate plate) and add 90 μL of Ix kinase buffer. Shake the mixture on the intermediate plate for 10 min. Transfer 5 μL of each well from the 96-well intermediate plate to a 384-well plate in duplicates. Add 10 μL of 2.5× enzyme solution to each well of the 384-well assay plate and incubate at room temperature for 10 min. Add 10 μL, of 2.5×FAM-labeled peptide and ATP solution and incubate at 28° C. for a period of time. Finally stop the reaction by adding 30 μL of stop buffer and collect data on Caliper to obtain the IC50.
In the case of `Cn1cc(-c2cccc(NC(=O)c3cc4oc(N5CCOCC5)nc4nc3N3CCC(F)(F)CC3)n2)cn1` [Compound A11, 5-(4,4-Difluoropiperidin-1-yl)-N-(6-(1-methyl-1H-pyrazol-4-yl)pyridin-2-yl)-2-morpholinooxazolo[4,5-b]pyridine-6-carboxamide], the “activity, times better than that of the positive control compound CA4948” value is listed as “more than 5 times”.
Same read-out and setting: then `Cn1cc(-c2cccc(NC(=O)c3cc4oc(N5CCOCC5)nc4nc3N3CCC(C)(O)CC3)n2)cn1` [Compound A25, 5-(4-Hydroxy-4-methylpiperidin-1-yl)-N-(6-(1-methyl-1H-pyrazol-4-yl)pyridin-2-yl)-2-morpholinooxazolo[4,5-b]pyridine-6-carboxamide], with “more than 10 times”; and `Cn1cc(-c2cccc(NC(=O)c3cc4oc(N5CCOCC5)nc4nc3N3CCC4(CCO4)CC3)n2)cn1` [Compound A26, N-(6-(1-Methyl-1H-pyrazol-4-yl)pyridin-2-yl)-2-morpholino-5-(1-oxa-7-azaspiro[3.5]nonan-7-yl)oxazolo[4,5-b]pyridine-6-carboxamide], with “more than 25 times”.

Staying with this experiment, now noted: read-out: IC50 (nM) (10 μM ATP).
In general, IC50 refers to the concentration needed to halve the response being measured. Turning to `Cn1cc(-c2cccc(NC(=O)c3cc4oc(N5CCOCC5)nc4nc3N3CCC4(CCO4)CC3)n2)cn1` [Compound A26, N-(6-(1-Methyl-1H-pyrazol-4-yl)pyridin-2-yl)-2-morpholino-5-(1-oxa-7-azaspiro[3.5]nonan-7-yl)oxazolo[4,5-b]pyridine-6-carboxamide], the IC50 turned out to be 4.2 nM.

The experiment is the same for the next values; noted with them: read-out: IC50 (nM) (10 μM ATP); IRAK4 kinase, 10 μM ATP.
Turning to `CN1CCN(c2nc3nc(N4CCOCC4)oc3cc2C(=O)Nc2cccc(-c3cnn(C)c3)n2)CC1` [Compound A3, N-(6-(1-methyl-1H-pyrazol-4-yl)pyridin-2-yl)-5-(4-methylpiperazin-1-yl)-2-morpholinooxazolo[4,5-b]pyridine-6-carboxamide], the IC50 worked out at 43 nM.
For `Cn1cc(-c2cccc(NC(=O)c3cc4oc(N5CCOCC5)nc4nc3N3CC[C@H](O)C3)n2)cn1` [Compound A6, (S)-5-(3-hydroxypyrrolidin-1-yl)-N-(6-(1-methyl-1H-pyrazol-4-yl)pyridin-2-yl)-2-morpholinooxazolo[4,5-b]pyridine-6-carboxamide], the IC50 is 194 nM.
Consider `Cn1cc(-c2cccc(NC(=O)c3cc4oc(N5CCOCC5)nc4nc3N3CC(O)(C4CC4)C3)n2)cn1` [Compound A10, 5-(3-Cyclopropyl-3-hydroxyazetidin-1-yl)-N-(6-(1-methyl-1H-pyrazol-4-yl)pyridin-2-yl)-2-morpholinooxazolo[4,5-b]pyridine-6-carboxamide], for which the IC50 is 122 nM.
Consider `Cn1cc(-c2cccc(NC(=O)c3cc4oc(N5CCOCC5)nc4nc3N3CCC(F)(F)CC3)n2)cn1` [Compound A11, 5-(4,4-Difluoropiperidin-1-yl)-N-(6-(1-methyl-1H-pyrazol-4-yl)pyridin-2-yl)-2-morpholinooxazolo[4,5-b]pyridine-6-carboxamide], for which the IC50 was determined as 22 nM.
Still for that read-out and setting: then `Cn1cc(-c2cccc(NC(=O)c3cc4oc(N5CCOCC5)nc4nc3N3CCC(F)(F)C3)n2)cn1` [Compound A12, 5-(3,3-Difluoropyrrolidin-1-yl)-N-(6-(1-methyl-1H-pyrazol-4-yl)pyridin-2-yl)-2-morpholinooxazolo[4,5-b]pyridine-6-carboxamide], with 33 nM.
With `Cn1cc(-c2cccc(NC(=O)c3cc4oc(N5CCOCC5)nc4nc3N3CCNCC3)n2)cn1` [Compound A13, N-(6-(1-Methyl-1H-pyrazol-4-yl)pyridin-2-yl)-2-morpholino-5-(piperazin-1-yl)oxazolo[4,5-b]pyridine-6-carboxamide], the IC50 amounted to 304 nM.
Turning to `Cn1cc(-c2cccc(NC(=O)c3cc4oc(N5CCOCC5)nc4nc3N3CC(C)(O)C3)n2)cn1` [Compound A14, 5-(3-Hydroxy-3-methylazetidin-1-yl)-N-(6-(1-methyl-1H-pyrazol-4-yl)pyridin-2-yl)-2-morpholinooxazolo[4,5-b]pyridine-6-carboxamide], the IC50 stood at 164 nM.
Consider `Cn1cc(-c2cccc(NC(=O)c3cc4oc(N5CCOCC5)nc4nc3N3CC4(C3)CC(F)(F)C4)n2)cn1` [Compound A15, 5-(6,6-Difluoro-2-azaspiro[3.3]heptan-2-yl)-N-(6-(1-methyl-1H-pyrazol-4-yl)pyridin-2-yl)-2-morpholinooxazolo[4,5-b]pyridine-6-carboxamide], for which the IC50 came out at 244 nM.
On to `Cn1cc(-c2cccc(NC(=O)c3cc4oc(N5CCOCC5)nc4nc3N3CCCC(O)C3)n2)cn1` (stereo not shown) [Compound A16, 5-(3-Hydroxypiperidin-1-yl)-N-(6-(1-methyl-1H-pyrazol-4-yl)pyridin-2-yl)-2-morpholinooxazolo[4,5-b]pyridine-6-carboxamide], for which the IC50 came to 31 nM.
On to `Cn1cc(-c2cccc(NC(=O)c3cc4oc(N5CCOCC5)nc4nc3N3CC4(CCOC4)C3)n2)cn1` [Compound A18, N-(6-(1-Methyl-1H-pyrazol-4-yl)pyridin-2-yl)-2-morpholino-5-(6-oxa-2-azaspiro[3.4]octan-2-yl)oxazolo[4,5-b]pyridine-6-carboxamide], for which the half-maximal inhibitory concentration (IC50) is 221 nM.
For the molecule `Cn1cc(-c2cccc(NC(=O)c3cc4oc(N5CCOCC5)nc4nc3N3CCN4CCC[C@@H]4C3)n2)cn1` [Compound A21, (R)-5-(Hexahydropyrrolo[1,2-a]pyrazin-2(1H)-yl)-N-(6-(1-methyl-1H-pyrazol-4-yl)pyridin-2-yl)-2-morpholinooxazolo[4,5-b]pyridine-6-carboxamide], the 50% inhibitory concentration (IC50) was 26 nM.
`Cn1cc(-c2cccc(NC(=O)c3cc4oc(N5CCOCC5)nc4nc3N3CC4(CC(O)C4)C3)n2)cn1` [Compound A22, 5-(6-Hydroxy-2-azaspiro[3.3]heptan-2-yl)-N-(6-(1-methyl-1H-pyrazol-4-yl)pyridin-2-yl)-2-morpholinooxazolo[4,5-b]pyridine-6-carboxamide]: the IC50 was 188 nM.
Same read-out and setting: then `CN(C)C1CCN(c2nc3nc(N4CCOCC4)oc3cc2C(=O)Nc2cccc(-c3cnn(C)c3)n2)CC1` [Compound A23, 5-(4-(Dimethylamino)piperidin-1-yl)-N-(6-(1-methyl-1H-pyrazol-4-yl)pyridin-2-yl)-2-morpholinooxazolo[4,5-b]pyridine-6-carboxamide], with 425 nM.
With `Cn1cc(-c2cccc(NC(=O)c3cc4oc(N5CCOCC5)nc4nc3N3CCC(C)(O)CC3)n2)cn1` [Compound A25, 5-(4-Hydroxy-4-methylpiperidin-1-yl)-N-(6-(1-methyl-1H-pyrazol-4-yl)pyridin-2-yl)-2-morpholinooxazolo[4,5-b]pyridine-6-carboxamide], the 50% inhibitory concentration (IC50) was determined as 8.6 nM.
Take `Cn1cc(-c2cccc(NC(=O)c3cc4oc(N5CCOCC5)nc4nc3N3CCN4CCC[C@H]4C3)n2)cn1` [Compound A27, (S)-5-(Hexahydropyrrolo[1,2-a]pyrazin-2(1H)-yl)-N-(6-(1-methyl-1H-pyrazol-4-yl)pyridin-2-yl)-2-morpholinooxazolo[4,5-b]pyridine-6-carboxamide]: the IC50 was found to be 81 nM.
Same read-out and setting: the value for `Cn1cc(-c2cccc(NC(=O)c3cc4oc(N5CCOCC5)nc4nc3N3C4CCC3CC(O)C4)n2)cn1` (stereo not shown) [Compound A28, 5-(3-Hydroxy-8-azabicyclo[3.2.1]octan-8-yl)-N-(6-(1-methyl-1H-pyrazol-4-yl)pyridin-2-yl)-2-morpholinooxazolo[4,5-b]pyridine-6-carboxamide] was 80 nM.
For `CC1CN(c2nc3nc(N4CCOCC4)oc3cc2C(=O)Nc2cccc(-c3cnn(C)c3)n2)CCN1C` (stereo not shown) [Compound A30, 5-(3,4-Dimethylpiperazin-1-yl)-N-(6-(1-methyl-1H-pyrazol-4-yl)pyridin-2-yl)-2-morpholinooxazolo[4,5-b]pyridine-6-carboxamide Hydrochloride], the IC50 was found to be 125 nM.
On the same count and under the same terms, then `COCCN1CCN(c2nc3nc(N4CCOCC4)oc3cc2C(=O)Nc2cccc(-c3cnn(C)c3)n2)CC1` [Compound A34, 5-(4-(2-Methoxyethyl)piperazin-1-yl)-N-(6-(1-methyl-1H-pyrazol-4-yl)pyridin-2-yl)-2-morpholinooxazolo[4,5-b]pyridine-6-carboxamide Hydrochloride], with 40 nM.
